This is an account of results in patent US7507717B2 (Xenome Ltd., priority 2002, dated 2009).

Residues, ends and D or L forms follow the SMILES beside them.

Experiment [1] concerns the target T1, human noradrenaline transporter (hNET) (Homo sapiens, UniProt P23975).
T1 construct: expressed in transfected cells; host or cells: COS-7 cells (ATCC), transient transfection with metafectene
The experiment can be described thus: cell-based.

Experiment [2] deals with T1, human noradrenaline transporter (hNET). Nature of the experiment: biochemical. In kind it is binding. The conditions noted are these: for IC50: Av IC50 Displacement of 3H-nisoxetine from hNET.

T1 sequence (P23975 whole entry): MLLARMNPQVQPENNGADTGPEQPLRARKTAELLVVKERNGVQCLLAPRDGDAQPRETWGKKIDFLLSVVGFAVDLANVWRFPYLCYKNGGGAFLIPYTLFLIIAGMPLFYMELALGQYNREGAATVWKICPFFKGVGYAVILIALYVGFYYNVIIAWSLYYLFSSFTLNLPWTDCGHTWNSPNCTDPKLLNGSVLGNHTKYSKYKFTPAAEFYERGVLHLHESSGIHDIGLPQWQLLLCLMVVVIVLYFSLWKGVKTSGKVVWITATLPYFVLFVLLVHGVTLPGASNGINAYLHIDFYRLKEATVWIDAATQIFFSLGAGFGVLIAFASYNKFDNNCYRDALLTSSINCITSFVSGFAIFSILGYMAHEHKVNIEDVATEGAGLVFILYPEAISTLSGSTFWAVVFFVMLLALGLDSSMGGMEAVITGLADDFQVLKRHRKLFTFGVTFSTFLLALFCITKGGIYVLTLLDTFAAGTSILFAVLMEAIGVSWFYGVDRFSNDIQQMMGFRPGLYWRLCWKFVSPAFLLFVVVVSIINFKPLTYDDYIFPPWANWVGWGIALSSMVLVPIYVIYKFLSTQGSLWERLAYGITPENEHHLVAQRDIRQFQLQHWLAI

For the compound `CC(C)C[C@@H]1NC(=O)[C@H](CCCCN)NC(=O)[C@H](Cc2ccc(O)cc2)NC(=O)CNC(=O)[C@@H]2CSSC[C@H](NC1=O)C(=O)N[C@@H](CCCNC(=N)N)C(=O)N1CCC[C@H]1C(=O)N[C@H](C(N)=O)CSSC[C@H](NC(=O)[C@@H](NC(=O)CNC(=O)[C@H](CC(N)=O)NC(=O)[C@@H](N)Cc1ccc(O)cc1)C(C)C)C(=O)N2` [compound 89], the IC50 (commonly the point on the concentration scale where inhibition reaches its midpoint) in experiment [1] was 112 nM; in experiment [2] it was 339 nM.

As to `CC(C)C[C@@H]1NC(=O)[C@H](CCCCN)NC(=O)[C@H](Cc2ccc(O)cc2)NC(=O)CNC(=O)[C@@H]2CSSC[C@H](NC1=O)C(=O)N[C@H](C(N)=O)CSSC[C@H](NC(=O)[C@@H](N)C(C)C)C(=O)N2` [compound 148] (HELM PEPTIDE1{V.C.C.G.Y.K.L.C.C.[am]}$PEPTIDE1,PEPTIDE1,2:R3-9:R3|PEPTIDE1,PEPTIDE1,3:R3-8:R3$$$V2.0), the IC50 in experiment [1] is 347 nM; in experiment [2], 3160 nM.

With `CC(C)C[C@@H]1NC(=O)[C@H](CCCCN)NC(=O)[C@H](Cc2ccc(O)cc2)NC(=O)CNC(=O)[C@@H]2CSSC[C@H](NC1=O)C(=O)N[C@@H](Cc1c[nH]c3ccccc13)C(=O)N1CCC[C@H]1C(=O)N[C@H](C(N)=O)CSSC[C@H](NC(=O)[C@@H](NC(=O)[C@H](CC(=O)O)NC(=O)[C@H](CCCCN)NC(=O)[C@@H](N)Cc1c[nH]c3ccccc13)C(C)C)C(=O)N2` [compound 92] (HELM PEPTIDE1{W.K.D.V.C.C.G.Y.K.L.C.W.P.C.[am]}$PEPTIDE1,PEPTIDE1,5:R3-14:R3|PEPTIDE1,PEPTIDE1,6:R3-11:R3$$$V2.0), the IC50 in experiment [1] was 36.3 nM; in experiment [2], 407 nM.

On to `CC(C)C[C@@H]1NC(=O)[C@H](CCCCN)NC(=O)[C@H](Cc2ccc(O)cc2)NC(=O)CNC(=O)[C@@H]2CSSC[C@H](NC1=O)C(=O)N[C@@H](Cc1c[nH]cn1)C(=O)N1CCC[C@H]1C(=O)N[C@H](C(N)=O)CSSC[C@H](NC(=O)[C@@H](NC(=O)CNC(=O)[C@H](CC(N)=O)NC(=O)[C@@H](N)Cc1c[nH]c3ccccc13)C(C)C)C(=O)N2` [compound 82], for which the IC50 in experiment [1] was 3160 nM; in experiment [2] it was 295 nM.

In experiment [2], `CC(C)C[C@@H]1NC(=O)[C@H](Cc2ccccc2)NC(=O)[C@H](Cc2ccc(O)cc2)NC(=O)CNC(=O)[C@@H]2CSSC[C@H](NC1=O)C(=O)N[C@@H](Cc1c[nH]cn1)C(=O)N1CCC[C@H]1C(=O)N[C@H](C(N)=O)CSSC[C@H](NC(=O)[C@@H](NC(=O)CNC(=O)[C@H](CC(N)=O)NC(=O)[C@@H](N)Cc1ccc(O)cc1)C(C)C)C(=O)N2` [compound 179] (HELM PEPTIDE1{Y.N.G.V.C.C.G.Y.F.L.C.H.P.C.[am]}$PEPTIDE1,PEPTIDE1,5:R3-14:R3|PEPTIDE1,PEPTIDE1,6:R3-11:R3$$$V2.0) showed an IC50 of 25100 nM.

In turn, `CC(C)C[C@@H]1NC(=O)[C@H](CCCCN)NC(=O)[C@H](CC(N)=O)NC(=O)CNC(=O)[C@@H]2CSSC[C@H](NC1=O)C(=O)N[C@@H](Cc1c[nH]cn1)C(=O)N1CCC[C@H]1C(=O)N[C@H](C(N)=O)CSSC[C@H](NC(=O)[C@@H](NC(=O)CNC(=O)[C@H](CC(N)=O)NC(=O)[C@@H](N)Cc1ccc(O)cc1)C(C)C)C(=O)N2` [compound 184] (HELM PEPTIDE1{Y.N.G.V.C.C.G.N.K.L.C.H.P.C.[am]}$PEPTIDE1,PEPTIDE1,5:R3-14:R3|PEPTIDE1,PEPTIDE1,6:R3-11:R3$$$V2.0) gave an IC50 in experiment [2] of 79400 nM.

Take `CC(C)C[C@H](NC(=O)[C@H](CC(=O)O)NC(=O)[C@H](CCCCN)NC(=O)[C@@H](N)Cc1c[nH]c2ccccc12)C(=O)N[C@H]1CSSC[C@@H](C(N)=O)NC(=O)[C@@H]2CCCN2C(=O)[C@H](Cc2c[nH]cn2)NC(=O)[C@@H]2CSSC[C@H](NC1=O)C(=O)NCC(=O)N[C@@H](Cc1ccc(O)cc1)C(=O)N[C@@H](CCCCN)C(=O)N[C@@H](CC(C)C)C(=O)N2` [compound 85] (HELM PEPTIDE1{W.K.D.L.C.C.G.Y.K.L.C.H.P.C.[am]}$PEPTIDE1,PEPTIDE1,5:R3-14:R3|PEPTIDE1,PEPTIDE1,6:R3-11:R3$$$V2.0): the IC50 in experiment [1] is 89.1 nM; in experiment [2], 309 nM.

YNGVCCGYYLCHPC [compound 212]: the “Av IC50 Displacement of 3H-nisoxetine from hNET” value in experiment [2] is −2.00.

`CC(C)C[C@@H]1NC(=O)[C@H](CCCCN)NC(=O)[C@H](Cc2ccc(O)cc2)NC(=O)CNC(=O)[C@@H]2CSSC[C@H](NC1=O)C(=O)N[C@@H](Cc1c[nH]cn1)C(=O)N1CCC[C@H]1C(=O)N[C@H](C(N)=O)CSSC[C@H](NC(=O)[C@@H](NC(=O)CNC(=O)[C@@H](N)CC(N)=O)C(C)C)C(=O)N2` [compound 146]: the 50% inhibitory concentration (IC50) is 741 nM in experiment [1] and 3090 nM in experiment [2].

Take `CC(=O)N[C@@H](Cc1ccc(O)cc1)C(=O)N[C@@H](CC(N)=O)C(=O)NCC(=O)N[C@H](C(=O)N[C@H]1CSSC[C@@H](C(N)=O)NC(=O)[C@@H]2CCCN2C(=O)[C@H](Cc2c[nH]cn2)NC(=O)[C@@H]2CSSC[C@H](NC1=O)C(=O)NCC(=O)N[C@@H](Cc1ccc(O)cc1)C(=O)N[C@@H](CCCCN)C(=O)N[C@@H](CC(C)C)C(=O)N2)C(C)C` [compound 161]: in experiment [2], the IC50 is 6170 nM.

Consider `CC(C)C[C@@H]1NC(=O)[C@H](CCCCN)NC(=O)[C@H](Cc2ccc(O)cc2)NC(=O)CNC(=O)[C@@H]2CSSC[C@H](NC1=O)C(=O)N[C@@H](CCCNC(=N)N)C(=O)N[C@@H](C)C(=O)N[C@H](C(N)=O)CSSC[C@H](NC(=O)[C@@H](NC(=O)CNC(=O)[C@H](CCCNC(=N)N)NC(=O)[C@@H](N)Cc1c[nH]c3ccccc13)C(C)C)C(=O)N2` [compound 38], for which the IC50 in experiment [2] was 102 nM.

`CC(C)C[C@@H]1NC(=O)[C@H](CCCCN)NC(=O)[C@H](Cc2ccc(O)cc2)NC(=O)[C@@H](CCC(=O)O)NC(=O)[C@@H]2CSSC[C@H](NC1=O)C(=O)N[C@@H](Cc1c[nH]cn1)C(=O)N1CCC[C@H]1C(=O)N[C@H](C(N)=O)CSSC[C@H](NC(=O)[C@@H](NC(=O)CNC(=O)[C@@H](N)CC(N)=O)C(C)C)C(=O)N2` [compound 183] had an IC50 in experiment [2] of 61700 nM.
